The record followed here is patent publication US20240293364A1, “BIOMARKERS FOR CANCER THERAPY USING MDM2 ANTAGONISTS” (OTSUKA PHARMACEUTICAL CO., LTD., priority 2021, published 2024).

One experiment deals with DDR signalling pathway. As to the kind of experiment: Western blotting of DDR signalling in ATM mutant cell lines. Format: cell-based. The conditions noted are these: ATM mutant cell lines (FIG. 2E). The protocol:
The cell lysates were then analysed by Western blotting. […] After washing, blots were incubated for 1 hour with infrared dye labelled anti-rabbit IR800 or anti-goat IR800 secondary antibodies at a dilution of 1: 10,000 in Odyssey blocking buffer (LiCor Biosciences, Lincoln, USA).

The subject of experiment [1] is patient-derived organoids (PDOs). As to the kind of experiment: Proliferation assays on patient-derived organoids (PDOs), BRCA1/BRCA2/ATM status. Format: cell-based. The protocol: Organoids were retrieved from the CrownBIO organoid bank and expanded before getting enough quantity according to standard operation procedure. One day before organoids seeding, the needed number of organoids were passaged 1:1 using 50% Matrigel and 50% corresponding culture medium. On Day 0 organoids were seeded and compound added: organoids were collected by adding 20 μl 100× Dispase solution to each well from a 6-well plate, and incubating at 37C for 30 min. After incubation, organoids were collected from all wells and pipetted through a pre-wet 100 μm filter into a 50 ml plastic tube, then filtered the flow through over a pre-wet 20 μm filter, inverted the 20 μm filter and recovered the organoids in a new 50 ml tube, Collect organoids were then resuspended in the corresponding culture media, and counted. Organoids cell suspensions were added to 384-well plate by Multidrop dispenser. 2-4 hours after organoids seeding, compounds were added by Tecan D300e, then plates were placed back into incubator for 5 days' incubation. On day 5, proliferation was assayed by CellTiter-Glo assay. […] The plate was then read (for luminescence) in an Envision plate reader.

For a further experiment, the system named is A2780. As to the kind of experiment: CellTiter-Glo cell viability, combination matrix with PARP inhibitors (HSA synergy), A2780. It counts as cell-based. The note with it: A2780, TP53 WT, DDR defective, 72 h. Here is the method: The cell line will be treated with test articles alone, matrix combinations with test articles and culture medium as vehicle control.
• 1. Harvest cells during the logarithmic growth period and count cell number. • 2. Adjust cell concentrations to 4.0×10^4cells/mL with respective culture medium. • 3. Add 100 μL cell suspensions to three 96-well plates (plates A, B and C) with the final cell density of 4×10^3 cells/well. 4a. Next Day: For the Plates of TO Reading: • 1) Equilibrate the plate A and its content at RT for approximately 30 min. • 2) Add 50 μL CellTiter-Glo reagent to each well. • 3) Mix content for 5 min on an orbital shaker to induce cell lysis. • 4) Allow the plate to incubate at RT for 20 min to stabilize luminescent signal. • 5) Record luminescence (TO) using EnVision Multi Label Reader. 4b. For the Plates of Test Reading: • 1) Prepare 500× solution of test articles (Top working concentration: 10 μM/100 μM of test articles in media with 3-fold serial dilutions to achieve 9 dose levels. • 2) Prepare 10× reference control solutions (Top working concentration: 100 μM in media with 3.16-fold serial dilutions. • 3) Dispense 500× drug solutions in each well (triplicate for each drug concentration) of the plate B using digital dispenser. […] Record luminescence (T3) using EnVision Multi Label Reader. […]
For orientation: ATP-based viability assays read luminescence as a measure of living cells.

In experiment [2] the test system is xenograft model of MSI-H colorectal cancer (HCT-116). As to the kind of experiment: In vivo efficacy, HCT116 xenograft. Also noted: species or system BALB/c nude mice. The conditions noted are these: HCT-116 xenograft, 50 mg/kg daily (FIG. 4D). Here is the method:
5×10^6 HCT116 cells (in 100 μl of PBS) were injected subcutaneously into the right hind flank of groups of BALB/c nude mice. Tumours were measured externally by using a pair of digital callipers and volumes calculated as length×width^2×0.523. Before starting the study, the mice were arranged into groups of 8 according to tumour volume; mean volume should be circa 100 mm^3 with a normal range of 50 to 150 mm^3. […] Tumour volumes were measured every 2 to 3 days; animals were sacrificed when tumour volume was >1000 mm^3 or if the tumours started to show any abnormalities, such as ulceration.

The subject of experiment [3] is panel of 237 cancer cell lines. The experiment can be described thus: Cell panel screen of 237 cancer cell lines. Format: cell-based. The note with it: MSI-H colorectal cell lines. The text has this: Genomic features for these cell lines such as somatic mutations, copy number alterations and hypermethylation were obtained from the list of Cancer Functional Events as mentioned in Garnett et al (2016) ANOVA method was used to identify significant associations of genomics features to drug response.

A further experiment deals with MSI-H cell lines. As to the kind of experiment: Proliferation assays on cancer cell lines (CellTiter-Glo), MSI-H cell lines. It counts as cell-based. The conditions noted are these: eight MSI-H cell lines from different indications (FIG. 4B). The protocol:
Cancer cells were cultured in appropriate medium. […] Each cell line was tested in triplicates.

With `CC[C@@](O)(c1cc(F)c2c(c1)C(=O)N([C@H](c1ccc(Cl)cc1)[C@H](C)C(=O)O)[C@@]2(OC)c1ccc(Cl)cc1)C1CCOCC1` [Example 124, (2S,3S)-3-(4-chlorophenyl)-3-[(1R)-1-(4-chlorophenyl)-7-fluoro-5-[(1S)-1-hydroxy-1-(oxan-4-yl)propyl]-1-methoxy-3-oxo-2,3-dihydro-1H-isoindol-2-yl]-2-methylpropanoic acid], the “modulation of the DDR signalling pathway (western blot)” value in the experiment on DDR signalling pathway is “clear modulation of the DDR signalling pathway”. Further, the “sensitivity as measured by reduction in cell proliferation” value in experiment [1] (4 PDOs with alterations in either ATM, BRCA1 and/or BRCA2 (FIG. 2F-G)) is “showed sensitivity”; in experiment [1] (4 additional PDOs with no alterations in ATM, BRCA1 and/or BRCA2) it was “resistant”; with MSI-H cell lines, “showed sensitivity”. In addition, the entries for the “HSA_Average <−5 Antagonism >+5 Synergy” value in the experiment on A2780 (Compound 1 in combination with Olaparib) and in the experiment with A2780 (Compound 1 in combination with Talazoparib) were 6.2 and 12.3, respectively. In addition, the tumour growth inhibition entry in experiment [2] is listed as “significantly inhibits tumour growth”. Moreover, the “sensitivity in the cell panel data” value in experiment [3] is “sensitive”.
